In patent publication US12240844B2 (Voronoi, Inc., priority 2019, dated 2025):

How the values were obtained:
[1] = molecular target: T1, human GST-DYRK1A (full length) (Homo sapiens, UniProt Q13627); experiment: GST-DYRK1A enzyme inhibition, ADP-Glo kinase assay; type: biochemical; details: read-out: DYRK1 IC50
T1 construct: purified human GST-DYRK1A (full length, Thermo scientifics) enzyme; GST; purchased Thermo scientifics
Method in brief: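 Full-length human GST-DYRK1A (10 ng) incubated with 10 uM ATP and specific substrate for 1 h at 25° C in 40 mM Tris-HCl pH 7.4, 20 mM MgCl2, 0.5 mg/mL BSA, 50 uM DTT. ADP formation read by ADP-Glo luminescence; IC50 (nM) versus solvent control, triplicate.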

MDA-MB-231 cell line = experiment: MDA-MB-231 cancer cell proliferation inhibition (Cell Titer-Glo); type: cell-based; details: Homo sapiens, MDA-MB-231 triple-negative breast cancer cell line, 72 hours
Method in brief: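 GI50 comes from CellTiter-Glo luminescence, read 10 min after reagent addition at RT, following 72 h compound treatment. Eleven concentrations were used (⅓ steps, highest 10 μM final) on 2000 cells/well. MDA-MB-231 and MDA-MB-468 were grown in DMEM, SHP-77 in RPMI.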

LRRK2 = LRRK2 (Homo sapiens, UniProt Q5S007); experiment: LRRK2 enzyme inhibition, ADP-Glo kinase assay; type: biochemical; design: purchased Invitrogen PR8604B
Method in brief: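 Purified human LRRK2 (25 ng) in 40 mM Tris-HCl pH7.4, 20 mM MgCl2, 0.5 mg/ml BSA, 50 μM DTT with 10 μM ATP and substrate ([…]), 2 h at 25° C. Final compound 50 to 0.000001024 μM, 12-point dilution. ADP-Glo luminescence vs solvent control; IC50 (nM).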

LRRK2 (G2019S) = LRRK2 (G2019S) (Homo sapiens, UniProt Q5S007, G2019S); experiment: LRRK2 G2019S enzyme inhibition, ADP-Glo kinase assay; type: biochemical; design: purchased SignalChem L10-12GG
Method in brief: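 Purified human LRRK2 G2019S (16 ng) with 25 μM ATP and 0.2 μg substrate, 2 h at 25° C in 40 mM Tris-HCl pH 7.4, 20 mM MgCl2, 0.5 mg/ml BSA, 50 μM DTT; compound at 12 final concentrations from 50 μM downward. ADP-Glo luminescence versus solvent control gave IC50 (nM).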

Sequence of LRRK2 (Q5S007 970-2527 limits assumed): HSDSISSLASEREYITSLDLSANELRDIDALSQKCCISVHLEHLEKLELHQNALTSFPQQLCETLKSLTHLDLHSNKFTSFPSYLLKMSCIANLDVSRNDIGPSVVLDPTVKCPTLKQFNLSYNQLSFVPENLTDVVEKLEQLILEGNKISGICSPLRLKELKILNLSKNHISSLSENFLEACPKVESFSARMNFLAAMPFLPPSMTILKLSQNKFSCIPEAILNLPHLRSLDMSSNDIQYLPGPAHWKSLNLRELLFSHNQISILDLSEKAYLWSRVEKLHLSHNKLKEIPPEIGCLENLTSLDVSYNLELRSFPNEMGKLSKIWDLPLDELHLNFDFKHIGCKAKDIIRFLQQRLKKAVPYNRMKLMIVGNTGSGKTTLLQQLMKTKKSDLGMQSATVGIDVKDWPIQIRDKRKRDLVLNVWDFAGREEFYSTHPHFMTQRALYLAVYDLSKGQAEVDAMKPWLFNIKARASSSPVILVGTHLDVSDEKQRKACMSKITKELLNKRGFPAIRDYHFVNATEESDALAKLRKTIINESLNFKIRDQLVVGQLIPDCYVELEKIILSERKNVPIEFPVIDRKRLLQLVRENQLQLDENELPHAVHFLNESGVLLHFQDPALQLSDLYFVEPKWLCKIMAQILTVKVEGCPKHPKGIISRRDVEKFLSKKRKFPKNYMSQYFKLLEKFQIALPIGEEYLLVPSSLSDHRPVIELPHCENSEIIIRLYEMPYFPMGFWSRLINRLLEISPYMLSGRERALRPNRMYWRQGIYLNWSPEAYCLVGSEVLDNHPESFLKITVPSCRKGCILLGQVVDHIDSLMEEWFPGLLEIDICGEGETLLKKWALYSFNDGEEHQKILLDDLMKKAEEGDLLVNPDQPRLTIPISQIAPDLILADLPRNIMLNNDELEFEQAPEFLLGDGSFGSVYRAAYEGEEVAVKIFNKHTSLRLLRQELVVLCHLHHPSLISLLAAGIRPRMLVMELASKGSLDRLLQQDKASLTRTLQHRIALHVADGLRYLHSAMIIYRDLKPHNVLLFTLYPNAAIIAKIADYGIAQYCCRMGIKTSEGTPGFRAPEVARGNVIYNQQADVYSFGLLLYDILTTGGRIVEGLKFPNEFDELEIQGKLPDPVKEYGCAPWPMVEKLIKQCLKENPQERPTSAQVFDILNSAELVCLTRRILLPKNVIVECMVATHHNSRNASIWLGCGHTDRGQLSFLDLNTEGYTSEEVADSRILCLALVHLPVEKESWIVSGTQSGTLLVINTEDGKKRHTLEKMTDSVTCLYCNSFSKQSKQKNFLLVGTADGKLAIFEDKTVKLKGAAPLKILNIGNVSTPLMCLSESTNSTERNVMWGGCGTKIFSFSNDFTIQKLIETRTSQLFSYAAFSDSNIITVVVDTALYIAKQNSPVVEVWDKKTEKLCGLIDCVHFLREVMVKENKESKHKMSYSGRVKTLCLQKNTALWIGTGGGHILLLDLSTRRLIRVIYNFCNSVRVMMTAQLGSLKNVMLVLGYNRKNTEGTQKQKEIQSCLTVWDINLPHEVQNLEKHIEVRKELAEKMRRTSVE
Sequence of LRRK2 (G2019S) (Q5S007 970-2527 G2019S limits assumed): as the sequence (Q5S007 970-2527 limits assumed) above, with G1050S counted along it

| SMILES | IC50 [1] | GI50 (MDA-MB-231 cell line) | IC50 (LRRK2) | IC50 (LRRK2 (G2019S)) |
| --- | --- | --- | --- | --- |
| CCNc1cc(Nc2ccc(C(=O)N3CCC(N4CCOCC4)CC3)c3c2OCO3)nc2[nH]cc(C(F)(F)F)c12 [Example 37, (7-((4-(ethylamino)-3-(trifluoromethyl)-1H-pyrrolo[2,3-b]pyridin-6-yl)amino)benzo[d][1,3]dioxol-4-yl)(4-morpholinopiperidin-1-yl)methanone] | < 100 nM | 301 to 1000 nM | < 100 nM | < 100 nM |
| COc1cc(S(=O)(=O)N2CCOCC2)ccc1Nc1cc(C2CC2)c2c(C#N)c[nH]c2n1 [Example 227, 4-cyclopropyl-6-((2-methoxy-4-(morpholinosulfonyl)phenyl)amino)-1H-pyrrolo[2,3-b]pyridine-3-carbonitrile] | 301 to 1000 nM | 301 to 1000 nM | < 100 nM | 101 to 300 nM |
| COCCNc1cc(Nc2ccc(S(=O)(=O)N3CCC(N4CCOCC4)CC3)c3c2OCCO3)nc2[nH]cc(C(F)(F)F)c12 [Example 97, N^4-(2-methoxyethyl)-N^6-(8-((4-morpholonopiperidin-1-yl)sulfonyl)-2,3-dihydrobenzo[b] [1,4]dioxin-5-yl)-3-(trifluoromethyl)-1H-pyrrolo[2,3-b]pyridine-4,6-diamine] | 101 to 300 nM | 301 to 1000 nM | < 100 nM | < 100 nM |
| CNc1cc(Nc2ccc(S(=O)(=O)N3CCC(N4CCOCC4)CC3)c3c2OCCO3)nc2[nH]cc(C(F)(F)F)c12 [Example 233, N^4-methyl-N^6-(8-((4-morpholinopiperidin-1-yl)sulfonyl)-2,3-dihydrobenzo [b] [1,4]dioxin-5-yl)-3-(trifluoromethyl)-1H-pyrrolo[2,3-b]pyridine-4,6-diamine] | 101 to 300 nM | 301 to 1000 nM | < 100 nM | < 100 nM |
| COCCNc1cc(Nc2ccc(P3(=O)CCN(C4CC4)CC3)cc2OC)nc2[nH]cc(C(F)(F)F)c12 [Example 207, 1-cyclopropyl-4-(3-methoxy-4-((4-((2-methoxyethyl)amino)-3-(trifluoromethyl)-1H-pyrrolo[2,3-b]pyridin-6-yl)amino)phenyl)-1,4-azaphosphinane 4-oxide] | < 100 nM | 301 to 1000 nM | 101 to 300 nM | 101 to 300 nM |
| CCNc1cc(Nc2ccc(C(=O)N3CCC(N4CCOCC4)CC3)c3c2OCC3)nc2[nH]cc(C(F)(F)F)c12 [Example 90, (7-((4-(ethylamino)-3-(trifluoromethyl)-1H-pyrrolo[2,3-b]pyridin-6-yl)amino)-2,3-dihydrobenzofuran-4-yl)(4-morpholinopiperidin-1-yl)methanone] | < 100 nM | 301 to 1000 nM | < 100 nM | < 100 nM |
| CNc1cc(Nc2ccc(C(=O)N3CC[C@@H](N4CCOCC4)C3)c3c2OCC3)nc2[nH]cc(C(F)(F)F)c12 [Example 214, (R)-(7-((4-(methylamino)-3-(trifluoromethyl)-1H-pyrrolo[2,3-b]pyridin-6-yl)amino)-2,3-dihydrobenzofuran-4-yl)(3-morpholinopyrrolidin-1-yl)methanone] | < 100 nM | 301 to 1000 nM | < 100 nM | < 100 nM |
| CCNc1cc(Nc2ccc(S(=O)(=O)N3CCC(N4CCOCC4)CC3)c3c2OCCO3)nc2[nH]cc(C(F)(F)F)c12 [Example 96, N^4-ethyl-N^6-(8-((4-morpholonopiperidin-1-yl)sulfonyl)-2,3-dihydrobenzo [b] [1,4]dioxin-5-yl)-3-(trifluoromethyl)-1H-pyrrolo[2,3-b]pyridine-4,6-diamine] | 301 to 1000 nM | 301 to 1000 nM | < 100 nM | < 100 nM |
| CNc1cc(Nc2ccc(P3(=O)CCN(C4CC4)CC3)cc2OC)nc2[nH]cc(C(F)(F)F)c12 [Example 205, 1-cyclopropyl-4-(3-methoxy-4-((4-(methylamino)-3-(trifluoromethyl)-1H-pyrrolo[2,3-b]pyridin-6-yl)amino)phenyl)-1,4-azaphosphinane 4-oxide] | < 100 nM | 301 to 1000 nM | 101 to 300 nM | 101 to 300 nM |
| CCNc1cc(Nc2ccc(P3(=O)CCN(C4CCOCC4)CC3)cc2OC)nc2[nH]cc(C(F)(F)F)c12 [Example 94, 4-(4-((4-(ethylamino)-3-(trifluoromethyl)-1H-pyrrolo[2,3-b]pyridin-6-yl)amino)-3-methoxyphenyl)-1-(tetrahydro-2H-pyran-4-yl)-1,4-azaphosphinane 4-oxide] | 101 to 300 nM | 301 to 1000 nM | 101 to 300 nM | 101 to 300 nM |
| O=C(c1ccc(Nc2cc(C3CC3)c3c(C(F)(F)F)c[nH]c3n2)c2c1OCCO2)N1CCOCC1 [Example 220, (8-((4-cyclopropyl-3-(trifluoromethyl)-1H-pyrrolo[2,3-b]pyridin-6-yl)amino)-2,3-dihydrobenzo[b] [1,4]dioxin-5-yl)(morpholino) methanone] | 301 to 1000 nM | 301 to 1000 nM | 301 to 1000 nM | 301 to 1000 nM |
| CCNc1cc(Nc2ccc(C(=O)N3CCC(N4C[C@@H]5C[C@H]4CO5)CC3)c3c2OCC3)nc2[nH]cc(C(F)(F)F)c12 [Example 105, (4-((1S,4S)-2-oxa-5-azabicyclo[2.2.1]heptan-5-yl)piperidin-1-yl)(7-((4-(ethylamino)-3-(trifluoromethyl)-1H-pyrrolo[2,3-b]pyridin-6-yl)amino)-2,3-dihydrobenzofuran-4-yl)methanone] | < 100 nM | 301 to 1000 nM | < 100 nM | < 100 nM |
| COc1cc(S(=O)(=O)N2CCC(N3CCOCC3)CC2)ccc1Nc1cc(NCCS(C)(=O)=O)c2c(C(F)(F)F)c[nH]c2n1 [Example 194, N^6-(2-methoxy-4-((4-morpholinopiperidin-1-yl)sulfonyl)phenyl)-N^4-(2-(methylsulfonyl)ethyl)-3-(trifluoromethyl)-1H-pyrrolo[2,3-b]pyridine-4,6-diamine] | < 100 nM | 301 to 1000 nM | < 100 nM | < 100 nM |
| CNc1cc(Nc2ccc(C(=O)N3CCC(N4C[C@@H]5C[C@H]4CO5)CC3)c3c2OCC3)nc2[nH]cc(C(F)(F)F)c12 [Example 241, (4-((1S,4S)-2-oxa-5-azabicyclo[2.2.1]heptan-5-yl)piperidin-1-yl)(7-((4-(methylamino)-3-(trifluoromethyl)-1H-pyrrolo[2,3-b]pyridin-6-yl)amino)-2,3-dihydrobenzofuran-4-yl)methanone] | < 100 nM | 301 to 1000 nM | < 100 nM | < 100 nM |
| CNc1cc(Nc2ccc(C(=O)N3CCC(N4CCOCC4)CC3)c3c2OCC3)nc2[nH]cc(C(F)(F)F)c12 [Example 234, (7-((4-(methylamino)-3-(trifluoromethyl)-1H-pyrrolo[2,3-b]pyridin-6-yl)amino)-2,3-dihydrobenzofuran-4-yl)(4-morpholinopiperidin-1-yl)methanone] | < 100 nM | 301 to 1000 nM | < 100 nM | < 100 nM |
| O=C(c1ccc(Nc2cc(NC3CC3)c3c(C(F)(F)F)c[nH]c3n2)c2c1CCO2)N1CCC(N2CCOCC2)CC1 [Example 92, (7-((4-(cyclopropylamino)-3-(trifluoromethyl)-1H-pyrrolo[2,3-b]pyridin-6-yl)amino)-2,3-dihydrobenzofuran-4-yl)(4-morpholinopiperidin-1-yl)methanone] | < 100 nM | 301 to 1000 nM | < 100 nM | < 100 nM |
| CNc1cc(Nc2ccc(S(=O)(=O)N3CCC(N4C[C@H]5C[C@@H]4CO5)CC3)cc2OC)nc2[nH]cc(C(F)(F)F)c12 [Example 243, N^6-(4-((4-((1R,4R)-2-oxa-5-azabicyclo[2.2.1]heptan-5-yl)piperidin-1-yl)sulfonyl)-2-methoxyphenyl)-N^4-methyl-3-(trifluoromethyl)-1H-pyrrolo[2,3-b]pyridine-4,6-diamine] | < 100 nM | 101 to 300 nM | < 100 nM | < 100 nM |
| O=C(c1ccc(Nc2cc(C3CC3)c3c(C(F)(F)F)c[nH]c3n2)c2c1OCCO2)N1CCC(N2CCOCC2)CC1 [Example 221, (8-((4-cyclopropyl-3-(trifluoromethyl)-1H-pyrrolo[2,3-b]pyridin-6-yl)amino)-2,3-dihydrobenzo [b] [1,4]dioxin-5-yl)(4-morpholinopiperidin-1-yl)methanone] | – | 301 to 1000 nM | 101 to 300 nM | 101 to 300 nM |
| COc1cc(P2(=O)CCN(C(C)=O)CC2)ccc1Nc1cc(C2CC2)c2c(C(F)(F)F)c[nH]c2n1 [Example 48, 1-(4-(4-((4-cyclopropyl-3-(trifluoromethyl)-1H-pyrrolo[2,3-b]pyridin-6-yl)amino)-3-methoxyphenyl)-4-oxido-1,4-azaphosphinan-1-yl)ethan-1-one] | – | 301 to 1000 nM | 301 to 1000 nM | 301 to 1000 nM |
